Calls of active or inactive are those of the source. No rule for the calls is given here.
Biological target: glucose-6-phosphate dehydrogenase-6-phosphogluconolactonase (Plasmodium falciparum 3D7)
Experiment: PfG6PD enzyme inhibitors, kinetic NADPH readout, dose response, orthogonal assay, biochemical, kinetic NADPH detection (AID 540269)
Conditions: purified PfG6PD-6PGL

SMILES | IC50
Cc1nn(-c2ccccc2)c(Cl)c1/C=N/Nc1nc2ccccc2n1C | > 80 µM (inactive)
O=C1CCC[C@@H]2[C@@H](Cc3ccccc3)[C@H](N3CCN(c4ccccc4)CC3)C[C@@H]3CCN1[C@@H]32 | > 80 µM (inactive)
Nc1ccc2c3c(cccc13)-c1ccccc1-2 | 41.3 µM
Cc1cc(SCC(=O)N/N=C/c2ccco2)nc2ccccc12 | > 80 µM (inactive)
O=[N+]([O-])c1ccc2c(c1)-c1ccccc1C2O (centres undefined) | 42.9 µM
CCOc1cc(NCc2ccccc2)c2ncn(C(C)C)c2c1 | > 80 µM (inactive)
c1cc(CNc2ccc3c(c2)OCO3)ccn1 | > 80 µM (inactive)
c1ccc(OCc2nnc3n2N=C(c2ccccc2)CS3)cc1 | > 80 µM (inactive)
O=C1Nc2cc(C(=O)NCCCN3CCCC3)ccc2S/C1=C\c1ccccc1 | 22.3 µM
O=[N+]([O-])c1c(NCCO)cc(Sc2nc3ccccc3s2)c2nonc12 | > 80 µM (inactive)
COc1cc(/C=C2\SC(c3ccc(C)cc3)=NC2=O)ccc1O | > 80 µM (inactive)
Nc1c(C(=O)Nc2ccc(F)cc2)sc(=S)n1-c1ccccc1F | > 80 µM (inactive)
O=S(=O)(Nc1cccc2cccnc12)c1ccccc1 | 20.9 µM
N#Cc1ccc(Oc2cccc3cccnc23)c([N+](=O)[O-])c1 | > 80 µM (inactive)
CC(C)c1nnc(NC(=O)c2cccc(-n3cnnn3)c2)s1 | 27.4 µM
Cc1ccc(NS(=O)(=O)c2ccccc2Cl)c2c1CC(C)(C)O2 | > 80 µM (inactive)
CCn1c(=O)n(CC)c2cc(N3CCCC3)c(NC(=O)c3cccc(C)c3)cc21 | > 80 µM (inactive)
CC1CN(c2ccccc2)NC1=O (centres undefined) | > 80 µM (inactive)
COc1ccc(N2C(=O)/C(=C/c3cccs3)NC2=S)cc1 | 40.2 µM
O=C(Nc1ccc([N+](=O)[O-])cc1Cl)c1cc(Cl)ccc1O | > 80 µM (inactive)
CCCn1cc(S(=O)(=O)CC(=O)Nc2ccc(OC)cc2OC)c2ccccc21 | > 80 µM (inactive)
O=C(Nc1ccccc1C(=O)N/N=C/c1ccco1)c1ccccc1Cl | > 80 µM (inactive)

SMILES | IC50
COc1ccc(C(=O)Nc2sc3c(c2C(=O)O)CC(C)(C)OC3)cc1 | 40.6 µM
O=C1NC(=O)N(c2ccccc2)C(=O)/C1=C/c1ccc([N+](=O)[O-])s1 | > 80 µM (inactive)
CCC(C)N(CCNC(=O)c1ccc2c(c1)NC(=O)c1ccccc1S2)C1CCCCC1 (centres undefined) | 6.35 µM
Cc1nnc(N/N=C\c2ccc(-c3cccc(C(=O)O)c3)o2)n1N | 40.1 µM
COc1cc(/C=N/n2cc(-c3ccccc3)[nH]c2=S)cc(OC)c1O | 11.2 µM
CCN1CCN(C(=S)c2ccc(O)cc2)CC1 | > 80 µM (inactive)
OCCN1CCN(C(=S)c2ccc(-c3ccccc3)cc2)CC1 | > 80 µM (inactive)
COc1ccc(OCc2nnc3n2N=C(c2ccccc2)C(CC(=O)O)S3)cc1 (centres undefined) | > 80 µM (inactive)
NNC(=O)CN1C(c2ccccc2Br)=Nc2ccc(Br)cc2C1c1ccccc1 (centres undefined) | 57.2 µM
Cc1cc(NC(=O)c2oc3ccccc3c2C)ccc1-n1cnnn1 | 14.9 µM
CCc1c(C(=O)Nc2ccccc2)c(C)[nH]c(=S)c1C#N | > 80 µM (inactive)
COc1cc(/C=C2\CC/C(=C\c3cc(OC)c(O)c(OC)c3)C2=O)cc(OC)c1O | > 80 µM (inactive)
CCOc1ccc(CNc2ccc(N3CCCC3)cc2)cc1 | > 80 µM (inactive)
Cc1ccc2nc(SCC(=O)NC3CCCc4ccccc43)[nH]c2c1 (centres undefined) | > 80 µM (inactive)
Cc1ccc(-c2c(C(=O)N/N=C/c3ccsc3)nnn2-c2nonc2N)cc1 | 64.8 µM
Cc1ccc(C)c(-n2sc3ccc(F)cc3c2=O)c1 | 11.4 µM
COC1=C(OC)C(=O)C(Sc2ccc3ccccc3c2)=CC1=O | 23.3 µM
CC1(C)CN(c2ccccc2)N(C(=O)c2ccc(C#N)cc2)C1=O | > 80 µM (inactive)
Cc1c(/C=C/C(=O)c2ccc(Cl)s2)cnn1C | 41.1 µM
Cc1ccc(NC(=O)Cn2sc3nc(C)cc(C)c3c2=O)c(Cl)c1 | > 80 µM (inactive)
COC(=O)C1=C(C(=O)OC)SC2(S1)C(C(=O)OC)=C(C(=O)OC)Sc1c2ssc1=O | > 80 µM (inactive)
Cc1cc(C)nc(NC(N)=NCCc2ccccc2)n1 | > 80 µM (inactive)

SMILES | IC50
CN1CCN(C(=O)c2sc(=S)n(-c3ccccc3)c2N)CC1 | 50.3 µM
CC(Cc1ccc(O)c(O)c1)C(C)Cc1ccc(O)c(O)c1 (centres undefined) | 54.9 µM
COc1cc(/C=C/C(=O)c2ccc([N+](=O)[O-])o2)ccc1O | > 80 µM (inactive)
COc1ccc(NC(C)C(=O)N/N=C/c2cc(Br)ccc2OC)cc1 (centres undefined) | > 80 µM (inactive)
Cc1ccc(-c2nc(N3CCOCC3)s[n+]2-c2ccccc2)cc1 | > 80 µM (inactive)
COc1ccc(C(=O)ON=C2C=C(C)C(=O)C(C)=C2)cc1 | > 80 µM (inactive)
Cc1ccc(NC(=O)c2cc(N3C(=O)C=CC3=O)ccc2Cl)cc1C | 43.5 µM
O=c1c2cc(F)ccc2sn1-c1ccc(F)cc1 | 23.4 µM
CN1CCc2cccc3c2[C@H]1Cc1ccc(O)c(O)c1-3 | > 80 µM (inactive)
NC1CCc2cc(O)c(O)cc2C1 (centres undefined) | 34.5 µM
O=[N+]([O-])c1c(NCCCO)cc(Sc2nc3ccccc3s2)c2nonc12 | 73.7 µM
CC(C)(C)NC(=O)COc1ccc(CNc2ccc3[nH]c(=O)[nH]c3c2)cc1 | 10.4 µM
COc1ccc(C(=O)/C=C2\Sc3ccccc3N2C)cc1 | 43.4 µM
O=C1C=CC(=O)N1c1ccc(-c2nc3ccccc3o2)cc1 | > 80 µM (inactive)
CCOc1ccc2ccccc2c1/C=N/NC(=O)c1ccncc1 | > 80 µM (inactive)
CCN1CCCC1CNC(=O)c1ccc2c(c1)NC(=O)/C(=C\c1ccc(C)cc1)S2 (centres undefined) | 6.79 µM
C=CCc1c(C)[nH]c(=S)c(C#N)c1C | > 80 µM (inactive)
O=C(O)c1ccc(-n2c(-c3cc(-c4ccco4)[nH]n3)n[nH]c2=S)cc1 | 40.8 µM
COc1cc(N)c2ncsc2c1 | > 80 µM (inactive)
C=CCc1ccccc1OCC(=O)N/N=C/c1ccccc1OCC | > 80 µM (inactive)
COC1=C(N)C(=O)c2nc(C)ccc2C1=O | > 80 µM (inactive)
O=C1NC(=S)NC(=O)C1=Cc1ccc(Br)s1 | > 80 µM (inactive)

SMILES | IC50
Cc1ccc(/C=C/C(=O)NCCc2cccc(Cl)c2)o1 | > 80 µM (inactive)
O=C(CNc1ccc2c(c1)OCO2)N/N=C\c1cn(Cc2ccccc2)c2ccccc12 | > 80 µM (inactive)
CN1/C(=C\C(=O)c2cccs2)Sc2ccccc21 | 26.1 µM
COc1ccc2ccccc2c1C1CC(=O)N2CN(C3CCCCC3)CSC2=C1C#N (centres undefined) | > 80 µM (inactive)
COc1cc(NCc2ccccc2)c2ncn(C(C)C)c2c1 | > 80 µM (inactive)
O=C(Cn1sc2ccccc2c1=O)NC12CC3CC(CC(C3)C1)C2 | 13.5 µM
CC1COCC(C)N1C1=C(Cl)C(=O)c2ccccc2C1=O (centres undefined) | 42.4 µM
CCN(CC)c1ccc(NC(=O)c2ccccc2Br)cc1S(=O)(=O)Nc1ccccc1OC | 59.2 µM
S=c1ncc2[nH]c(=S)[nH]c2[nH]1 | 64.4 µM
CCOC(=O)Cc1cc(=O)n2[nH]c(C(C)(C)C)cc2n1 | > 80 µM (inactive)
COc1cc(CNc2ccc(N3CCCC3)cc2)ccc1OCc1ccccc1F | > 80 µM (inactive)
N#Cc1ccc2sn(-c3ccccc3)c(=O)c2c1 | 14.8 µM
O=c1c2ccccc2sn1-c1ccc(Cl)cc1Cl | 12.9 µM
CCOC(=O)Cc1csc(-n2sc3ccccc3c2=O)n1 | 31.3 µM
CCOc1ccc(Cl)cc1/C=N/NC(N)=O | 48.7 µM
CCN(CC)c1nc(N)nc(NS(=O)(=O)c2ccc(Cl)cc2)n1 | > 80 µM (inactive)
O=C1C(Cl)=C(NCCc2ccccc2)C(=O)c2ccccc21 | 70.3 µM
CC(=O)Nc1ccc(S(=O)(=O)/N=C2\C(=O)c3ccccc3C([O-])=C2n2cc[n+](-c3ccccn3)c2)cc1 | > 80 µM (inactive)
O=c1c2ccccc2sn1-c1nccs1 | 23.1 µM
COc1ccc(C(=O)Nc2nnc(S(=O)(=O)N3CCOCC3)s2)cc1 | 32.8 µM
Cc1ccccc1N/C(SCc1cccc(Br)c1)=C(/C#N)C(N)=O | > 80 µM (inactive)
COC(=O)CCC(=O)OC1(C)C(=O)C2=CN(C3CC3)C(c3ccc(OC)cc3)=CC2=C(Br)C1=O (centres undefined) | 45.8 µM

SMILES | IC50
COc1ccc(NC2CCCN(Cc3cccc4cnccc34)C2)cc1OC (centres undefined) | > 80 µM (inactive)
Cc1ccccc1-n1sc2cc(F)ccc2c1=O | 10.2 µM
CN(C)c1ncc(C2=C(Cl)C(=O)C(N3CCCC3)=C(Cl)C2=O)s1 | 35.6 µM
c1nc(SSc2ncnc3nc[nH]c23)c2[nH]cnc2n1 | 27 µM
CC(NC(=O)c1sc2cc([N+](=O)[O-])ccc2c1Cl)C(C)(C)C (centres undefined) | > 80 µM (inactive)
COc1cc(N(C)C)ccc1C=c1c2ccccc2n2c1cc(-c1ccccc1)[n+]2C | > 80 µM (inactive)
COc1ccc(S(=O)(=O)Nc2cc(SCC(=O)O)c(O)c3ccccc23)cc1 | 44.9 µM
CCOC(=O)Nc1ccc(NCc2ccc(F)cc2)nc1N | > 80 µM (inactive)
C[C@H](CO)N1C[C@H](C)[C@@H](CN(C)C(=O)Nc2ccc(C(F)(F)F)cc2)Oc2c(cccc2N(C)C)C1=O | > 80 µM (inactive)
Cc1cccc(C(=O)Nc2nnc(S(=O)(=O)N3CCOCC3)s2)c1 | 59.4 µM
CCC(=O)OCOc1ccc(/C=C2/CCC(CN(C)C)C2=O)cc1 (centres undefined) | 36.4 µM
O=C(CCl)NCCN1C(=O)S/C(=C\c2cccnc2)C1=O | > 80 µM (inactive)
CC(=O)Nc1cc2c(cc1[N+](=O)[O-])-c1ccccc1C2O (centres undefined) | > 80 µM (inactive)
CC1(C)CC2(CC(c3ccccc3F)c3ccc(O)c(O)c3O2)NC(=S)N1 (centres undefined) | 45.8 µM
C=CCSc1nnc(NC(=O)c2ccc(Cl)nc2)s1 | > 80 µM (inactive)
Cc1ccc(NC(=O)c2cc(C)n(-c3ccccc3)c2C)cc1 | > 80 µM (inactive)
CN=c1nc(-c2ccccc2)n(-c2ccccc2)s1 | 20.6 µM
O=C(O)CSc1cc(NS(=O)(=O)c2cccc([N+](=O)[O-])c2)c2ccccc2c1O | > 80 µM (inactive)
Cn1c(=O)[nH]c(=O)c2c1[nH]c(=S)n2CCCc1ccccc1 | 43.7 µM
COc1ccc(-n2c(=S)[nH]c3c(sc(=S)n3-c3ccccc3)c2=O)c(OC)c1 | > 80 µM (inactive)
COc1ccc(CN(C)S(=O)(=O)c2nnc(NC(=O)c3ccc(C)cc3)s2)cc1OC | 29.9 µM
